In patent EP1206941A1, “ACTIVITY PO[…] CHEMOTHERAPEUTICS, ANTICANCER COMPOSITIONS AND METHOD FOR POTENTIATING THE ACTIVITY OF CHEMOTHERAPEUTICS” (HISAMITSU PHARMACEUTICAL CO. INC., priority 1999, dated 2001):
Read-outs that look alike come from different tables or passages of the source. *1 amine or outer side, *2 acyl side, *3 side chain or, on linkers, in order; H or OH if unused. Where a SMILES comes first, the peptide text is derived from it. Bridges are numbered along the chain shown (N, C = ends). Roman numbers before positions name the chains, in order. [ ]: non-standard residue; d: D form. Actinocin(9to1) = Cc1c2oc3c(C)ccc(C(=O)[*:1])c3nc-2c(C(=O)[*:2])c(N)c1=O; NMeV = CN[C@H](C(=O)O)C(C)C; Sar = CNCC(=O)O

Test system: Murine melanoma B16 · BL6 cells
Assay: Assay for apoptosis-inducing activity (TNF bioassay, crystal violet staining)
Format: cell-based
Conditions: for potentiation of apoptosis-inducing activity: ED50 alone versus ED50 in the presence of peptide (SEQ ID NO:2) 50 µg/ml; for EC50: Mus musculus, B16-BL6, 19 h, 19 hours, Probit method, read-out: ED50 (apoptosis-inducing activity)
Protocol: The potentiating effects on the apoptosis-inducing activity of chemotherapeutic agents were evaluated based on whether or not the apoptosis-inducing activity of anticancer agents of the apoptosis-inducing type would be affected by the combined use of the aforementioned synthetic peptide.
Specifically, the apoptosis-inducing activity of anticancer agents of three kinds of apoptosis-inducing type agents was compared between the presence of the peptide and the absence of the peptide. Determination of the apoptosis-inducing activity was carried out according to TNF bioassay (K. Hirano et al., J. Biochem., 105, 120, 1989). The details are provided below.
A 96-well was coated with human plasma fibronectin at a concentration of 5 µg/ml (prepared according to the method of Fukai et al., J. Biol. Chem., 266, 8807, 1991) and was subjected to blocking with bovine serum albumin (Sigma), after which it was suspended in a serum-free culture: the culture was a mixture of Dulbeccos Modified Eagle Medium and Ham F12 medium at a volume ratio of 1:1 and will be referred to as DMEM/Ham medium hereafter (Nissui Pharmaceutical Co. Ltd.). Murine melanoma B16 · BL6 cells were inoculated onto the plate at 2x10^4 cells/well. After cell adhesion and distention were confirmed by cultivating the cells at 37 °C and under 5% CO2 atmosphere for 2 hours, the culture supernatant was removed and a mixed solution comprising a chemotherapeutic agent and the peptide was added thereto. Cultivation was conducted for 19 hours. The peptide was prepared to give a final concentration of 50 µg/ml, and the chemotherapeutic agents were dissolved in DMEM/Ham medium at a variety of concentrations. As controls, only the peptide and only the chemotherapeutic agent at the same concentrations as those described were added. Cultivation was conducted for 19 hours. In Example 9 doxorubicin (abbreviated as DOX) was used; in Example 10 VCR was used; and in Example 11 AcD was used. DOX was also purchased from Sigma. After cultivation, the above mixed solution was removed and exchanged with a DMEM/HaM medium containing 10% bovine fetal serum (URH Biosciences) for further cultivation overnight. After fixing with 5% formaldehyde (Wako Pure Chemical Industries Ltd.), the cells having undergone apoptosis were removed through washing and the cells adhered to the plate were stained with a 0.5% crystal violet solution. Excessive dye was washed out with water. After lyzing the cells with 1% SDS and extracting the dye, absorbance at a wavelength of 595 nm was measured with a microplate reader (Spectra Rainbow Thermo; Wako Pure Chemical Industries Ltd.).

[1] = chemotherapeutic agent used alone
[2] = in the presence of peptide (SEQ ID NO:2) 50 µg/ml

Compound: Cc1c2oc3c(C)ccc(C(=O)N[C@@H]4C(=O)N[C@H](C(C)C)C(=O)N5CCC[C@H]5C(=O)N(C)CC(=O)N(C)[C@@H](C(C)C)C(=O)O[C@@H]4C)c3nc-2c(C(=O)N[C@@H]2C(=O)N[C@H](C(C)C)C(=O)N3CCC[C@H]3C(=O)N(C)CC(=O)N(C)[C@@H](C(C)C)C(=O)O[C@@H]2C)c(N)c1=O [AcD, actinomycin D] (I: T[dV]P[Sar][NMeV] / II: T[dV]P[Sar][NMeV]; ester I:1-I:C, II:1-II:C; linker I:N-II:N via Actinocin(9to1))
- potentiation of apoptosis-inducing activity: ~40,000 fold
- EC50 [1]: 763 nM
- EC50 [2]: 0.0145 nM

Compound: COc1cccc2c1C(=O)c1c(O)c3c(c(O)c1C2=O)C[C@@](O)(C(=O)CO)C[C@@H]3O[C@H]1C[C@H](N)[C@H](O)[C@H](C)O1 [DOX, doxorubicin]
- potentiation of apoptosis-inducing activity: ~7.6 fold
- EC50 [1]: 0.293 µg/mL
- EC50 [2]: 0.039 µg/mL

Compound: CC[C@]1(O)C[C@H]2CN(CCc3c([nH]c4ccccc34)[C@@](C(=O)OC)(c3cc4c(cc3OC)N(C=O)[C@H]3[C@@](O)(C(=O)OC)[C@H](OC(C)=O)[C@]5(CC)C=CCN6CC[C@]43[C@@H]65)C2)C1 [VCR, vincristin]
- potentiation of apoptosis-inducing activity: ~27,000 fold
- EC50 [1]: 111 µg/mL
- EC50 [2]: 0.0036 µg/mL
